Reference: ChEMBL document CHEMBL3390835, “New insight into the mode of action of vancomycin dimers in bacterial cell wall synthesis” (Medchemcomm, 2011)
In brackets after ≈: the same amount, converted by molar mass. Activity calls are given as the source filed them. The rule behind the calls is not given here.

Assays:
[1] = tested on: Staphylococcus aureus; assay: Antibacterial activity against vancomycin-susceptible Staphylococcus aureus RN4220; type: functional
[2] = tested on: Enterococcus faecium; assay: Antibacterial activity against vancomycin A-resistant Enterococcus faecium SR7940; type: functional
[3] = tested on: Enterococcus faecium; assay: Antibacterial activity against vancomycin B-resistant Enterococcus faecium SR23598; type: functional
[4] = tested on: Enterococcus faecium; assay: Inhibition of protein synthesis in vancomycin B-resistant Enterococcus faecium SRM1101 assessed as [14C]leucine incorporation measured after 15 mins cultivation; type: functional, organism-based
[5] = tested on: Enterococcus faecium; assay: Inhibition of DNA synthesis in vancomycin B-resistant Enterococcus faecium SRM1101 assessed as [14C]thymidine incorporation measured after 15 mins cultivation; type: functional, organism-based
[6] = tested on: Enterococcus faecium; assay: Inhibition of RNA synthesis in vancomycin B-resistant Enterococcus faecium SRM1101 assessed as [3H]uracil incorporation measured after 15 mins cultivation; type: functional, organism-based
[7] = tested on: Enterococcus faecium; assay: Inhibition of fatty acid synthesis in vancomycin B-resistant Enterococcus faecium SRM1101 assessed as [14C]acetic acid incorporation measured after 15 mins cultivation; type: functional, organism-based
[8] = tested on: Enterococcus faecium; assay: Inhibition of peptidoglycan synthesis in vancomycin B-resistant Enterococcus faecium SRM1101 assessed as [3H]N-acetyl-D-glucosamine incorporation measured after 15 mins cultivation; type: functional, organism-based
[9] = tested on: Staphylococcus aureus; assay: Inhibition of cell wall synthesis in vancomycin-susceptible Staphylococcus aureus assessed as reduction of lipid intermediate synthesis using UDP-Mur-NAc-pentapeptide (L-Ala-gamma-D-Glu-L-Lys-D-Ala-D-Ala), UDPGlcNAc and [14C] glycine as precursors; type: functional, organism-based
[10] = tested on: Staphylococcus aureus; assay: Inhibition of cell wall synthesis in vancomycin-susceptible Staphylococcus aureus assessed as reduction of peptidoglycan synthesis using UDP-Mur-NAc-pentapeptide (L-Ala-gamma-D-Glu-L-Lys-D-Ala-D-Ala), UDPGlcNAc and [14C] glycine as precursors; type: functional, organism-based
[11] = tested on: Staphylococcus aureus; assay: Inhibition of cell wall synthesis in vancomycin-resistant Staphylococcus aureus assessed as reduction of lipid intermediate synthesis using UDP-Mur-NAc-pentapeptide (L-Ala-gamma-D-Glu-L-Lys-D-Ala-D-Lactate), UDPGlcNAc and [14C] glycine as precursors; type: functional, organism-based
[12] = tested on: Staphylococcus aureus; assay: Inhibition of cell wall synthesis in vancomycin-resistant Staphylococcus aureus assessed as reduction of peptidoglycan synthesis using UDP-Mur-NAc-pentapeptide (L-Ala-gamma-D-Glu-L-Lys-D-Ala-D-Lactate), UDPGlcNAc and [14C] glycine as precursors; type: functional, organism-based

Structure (SMILES) | MIC [1] [µg/mL] | MIC [2] [µg/mL] | MIC [3] [µg/mL] | inhibition [4] | inhibition [5] | inhibition [6] | inhibition [7] | inhibition [8] | IC50 [9] [µg/mL] | IC50 [10] [µg/mL] | IC50 [11] [µg/mL] | IC50 [12] [µg/mL]
CN[C@H](CC(C)C)C(=O)N[C@H]1C(=O)N[C@@H](CC(N)=O)C(=O)N[C@H]2C(=O)N[C@H]3C(=O)N[C@H](C(=O)N[C@H](C(=O)NCc4cccc(NC(=O)c5c6nc7c(C(=O)Nc8cccc(CNC(=O)[C@H]9NC(=O)[C@H]%10NC(=O)[C@H](NC(=O)[C@@H]%11NC(=O)[C@H](CC(N)=O)NC(=O)[C@H](NC(=O)[C@@H](CC(C)C)NC)[C@H](O)c%12ccc(c(Cl)c%12)Oc%12cc%11cc(c%12O[C@@H]%11O[C@H](CO)[C@@H](O)[C@H](O)[C@H]%11O[C@H]%11C[C@](C)(N)[C@H](O)[C@H](C)O%11)Oc%11ccc(cc%11Cl)[C@H]%10O)c%10ccc(O)c(c%10)-c%10c(O)cc(O)cc%109)c8)ccc(C)c7oc-6c(C)c(=O)c5N)c4)c4cc(O)cc(O)c4-c4cc3ccc4O)[C@H](O)c3ccc(c(Cl)c3)Oc3cc2cc(c3O[C@@H]2O[C@H](CO)[C@@H](O)[C@H](O)[C@H]2O[C@H]2C[C@](C)(N)[C@H](O)[C@H](C)O2)Oc2ccc(cc2Cl)[C@H]1O | 8 (≈ 2.35 µM) | 16 (≈ 4.71 µM) | 16 (≈ 4.71 µM) | inactive | inactive | inactive | inactive | inactive |  |  |  | 
CN[C@H](CC(C)C)C(=O)N[C@H]1C(=O)N[C@@H](CC(N)=O)C(=O)N[C@H]2C(=O)N[C@H]3C(=O)N[C@H](C(=O)N[C@H](C(=O)NCc4c5oc6c(CNC(=O)[C@H]7NC(=O)[C@H]8NC(=O)[C@H](NC(=O)[C@@H]9NC(=O)[C@H](CC(N)=O)NC(=O)[C@H](NC(=O)[C@@H](CC(C)C)NC)[C@H](O)c%10ccc(c(Cl)c%10)Oc%10cc9cc(c%10O[C@@H]9O[C@H](CO)[C@@H](O)[C@H](O)[C@H]9O[C@H]9C[C@](C)(N)[C@H](O)[C@H](C)O9)Oc9ccc(cc9Cl)[C@H]8O)c8ccc(O)c(c8)-c8c(O)cc(O)cc87)cccc6nc-5cc(N)c4=O)c4cc(O)cc(O)c4-c4cc3ccc4O)[C@H](O)c3ccc(c(Cl)c3)Oc3cc2cc(c3O[C@@H]2O[C@H](CO)[C@@H](O)[C@H](O)[C@H]2O[C@H]2C[C@](C)(N)[C@H](O)[C@H](C)O2)Oc2ccc(cc2Cl)[C@H]1O | 16 (≈ 5.11 µM) | 4 (≈ 1.28 µM) | 1 (≈ 0.319 µM) |  |  |  |  |  | 64 (≈ 20.4 µM) | 1.2 (≈ 0.383 µM) | 200 (≈ 63.8 µM) | 21 (≈ 6.7 µM)
CN[C@H](CC(C)C)C(=O)N[C@H]1C(=O)N[C@@H](CC(N)=O)C(=O)N[C@H]2C(=O)N[C@H]3C(=O)N[C@H](C(=O)N[C@H](C(=O)O)c4cc(O)cc(O)c4-c4cc3ccc4O)[C@H](O)c3ccc(c(Cl)c3)Oc3cc2cc(c3O[C@@H]2O[C@H](CO)[C@@H](O)[C@H](O)[C@H]2O[C@H]2C[C@](C)(N)[C@H](O)[C@H](C)O2)Oc2ccc(cc2Cl)[C@H]1O |  |  |  | inactive | inactive | inactive | inactive | inactive |  |  |  | 
CN[C@H](CC(C)C)C(=O)N[C@H]1C(=O)N[C@@H](CC(N)=O)C(=O)N[C@H]2C(=O)N[C@H]3C(=O)N[C@H](C(=O)N[C@H](C(=O)O)c4cc(O)cc(O)c4-c4cc3ccc4O)[C@H](O)c3ccc(c(Cl)c3)Oc3cc2cc(c3O[C@@H]2O[C@H](CO)[C@@H](O)[C@H](O)[C@H]2O[C@H]2C[C@](C)(NCc3cccc(NC(=O)c4ccc(C)c5oc6c(C)c(=O)c(N)c(C(=O)Nc7cccc(CN[C@@]8(C)C[C@H](O[C@H]9[C@H](Oc%10c%11cc%12cc%10Oc%10ccc(cc%10Cl)[C@@H](O)[C@@H](N)C(=O)N[C@@H](CC(N)=O)C(=O)N[C@H]%12C(=O)N[C@H]%10C(=O)N[C@H](C(=O)N[C@H](C(=O)O)c%12cc(O)cc(O)c%12-c%12cc%10ccc%12O)[C@H](O)c%10ccc(c(Cl)c%10)O%11)O[C@H](CO)[C@@H](O)[C@@H]9O)O[C@@H](C)[C@H]8O)c7)c-6nc45)c3)[C@H](O)[C@H](C)O2)Oc2ccc(cc2Cl)[C@H]1O | 1 (≈ 0.305 µM) | 8 (≈ 2.44 µM) | 2 (≈ 0.611 µM) | inactive | inactive | inactive | inactive | inactive | 74 (≈ 22.6 µM) | 11 (≈ 3.36 µM) | 300 (≈ 91.6 µM) | 61 (≈ 18.6 µM)
Cc1c2oc3c(C)ccc(C(=O)Nc4cccc(CN[C@@]5(C)C[C@H](O[C@H]6[C@H](Oc7c8cc9cc7Oc7ccc(cc7Cl)[C@@H](O)[C@@H](N)C(=O)N[C@@H](CC(N)=O)C(=O)N[C@H]9C(=O)N[C@H]7C(=O)N[C@H](C(=O)N[C@H](C(=O)O)c9cc(O)cc(O)c9-c9cc7ccc9O)[C@H](O)c7ccc(c(Cl)c7)O8)O[C@H](CO)[C@@H](O)[C@@H]6O)O[C@@H](C)[C@H]5O)c4)c3nc-2c(C(=O)Nc2cccc(CN[C@@]3(C)C[C@H](O[C@H]4[C@H](Oc5c6cc7cc5Oc5ccc(cc5Cl)[C@@H](O)[C@@H](N)C(=O)N[C@@H](CC(N)=O)C(=O)N[C@H]7C(=O)N[C@H]5C(=O)N[C@H](C(=O)N[C@H](C(=O)O)c7cc(O)cc(O)c7-c7cc5ccc7O)[C@H](O)c5ccc(c(Cl)c5)O6)O[C@H](CO)[C@@H](O)[C@@H]4O)O[C@@H](C)[C@H]3O)c2)c(N)c1=O | 4 (≈ 1.27 µM) | > 64 | 32 (≈ 10.2 µM) |  |  |  |  |  | 460 (≈ 146 µM) | 20 (≈ 6.36 µM) | 530 (≈ 168 µM) | 100 (≈ 31.8 µM)
CN[C@H](CC(C)C)C(=O)N[C@H]1C(=O)N[C@@H](CC(N)=O)C(=O)N[C@H]2C(=O)N[C@H]3C(=O)N[C@H](C(=O)N[C@H](C(=O)O)c4cc(O)cc(O)c4-c4cc3ccc4O)[C@H](O)c3ccc(c(Cl)c3)Oc3cc2cc(c3O[C@@H]2O[C@H](CO)[C@@H](O)[C@H](O)[C@H]2O[C@H]2C[C@](C)(NCc3c4oc5c(CN[C@@]6(C)C[C@H](O[C@H]7[C@H](Oc8c9cc%10cc8Oc8ccc(cc8Cl)[C@@H](O)[C@@H](NC(=O)[C@@H](CC(C)C)NC)C(=O)N[C@@H](CC(N)=O)C(=O)N[C@H]%10C(=O)N[C@H]8C(=O)N[C@H](C(=O)N[C@H](C(=O)O)c%10cc(O)cc(O)c%10-c%10cc8ccc%10O)[C@H](O)c8ccc(c(Cl)c8)O9)O[C@H](CO)[C@@H](O)[C@@H]7O)O[C@@H](C)[C@H]6O)cccc5nc-4cc(N)c3=O)[C@H](O)[C@H](C)O2)Oc2ccc(cc2Cl)[C@H]1O | 2 (≈ 0.638 µM) | 8 (≈ 2.55 µM) | 1 (≈ 0.319 µM) |  |  |  |  |  | 98 (≈ 31.3 µM) | 2.2 (≈ 0.702 µM) | 700 (≈ 223 µM) | 31 (≈ 9.89 µM)
